Among the data in PubChem BioAssay (NCI) are TGI values, retold here.

Among the test systems are SNB-75 CNS; 786-0 renal; KM12 colon; SN12C renal; OVCAR-8 ovarian; EKVX NSCLC; K-562 leukemia; SNB-19 CNS; MALME-3M melanoma; NCI/ADR-RES ovarian; SW-620 colon; BT-549 breast; RXF 393 renal; NCI-H460 lung; ACHN renal; TK-10 renal; A549 NSCLC; A498 renal; NCI-H226 lung.
Experiment in all cases: NCI anticancer screen, dose series, 48 h

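96-well plates; 48 h exposure; 5 concentrations. Endpoints by linear interpolation between flanking doses. Not reached: highest tested concentration assigned. TGI: concentration producing complete growth inhibition.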 Where only a bound is given, the exact number is not on record here.

With `CCC(C)C(C(=O)N/N=C1/SCC(=O)N1c1ccccc1)C(=O)N/N=C1/SCC(=O)N1c1ccccc1` (stereo not given), the TGI is above 100 µM in the assay with SNB-75 CNS; above 100 µM in the assay on 786-0 renal; 93.9 µM with KM12 colon; above 100 µM with SN12C renal; above 100 µM in the assay on OVCAR-8 ovarian; above 100 µM in the assay on EKVX NSCLC. In addition, the TGI was above 100 µM in the assay with K-562 leukemia; above 100 µM with SNB-19 CNS; 44.7 µM with MALME-3M melanoma; above 100 µM with NCI/ADR-RES ovarian; above 100 µM in the assay on SW-620 colon; above 100 µM with BT-549 breast. In addition, the TGI is 42.9 µM with RXF 393 renal; above 100 µM with NCI-H460 lung; above 100 µM in the assay with ACHN renal; above 100 µM in the assay on TK-10 renal; above 100 µM in the assay with A549 NSCLC.

In the case of `OC(CCN1CCCCC1)(c1ccccc1)c1ccccc1`, the TGI in the assay with 786-0 renal, with KM12 colon, in the assay on SN12C renal, in the assay on OVCAR-8 ovarian, in the assay with EKVX NSCLC and in the assay with K-562 leukemia was above 100 µM in each case. Also, the TGI in the assay on SNB-19 CNS, in the assay on MALME-3M melanoma, in the assay on NCI/ADR-RES ovarian, in the assay with SW-620 colon, in the assay on BT-549 breast and in the assay with RXF 393 renal was above 100 µM each time. Further, the TGI in the assay with ACHN renal, in the assay on TK-10 renal, in the assay with A549 NSCLC and with A498 renal was above 100 µM throughout.

In the case of `Cc1cc(C)nc(NS(=O)(=O)c2ccc(Nc3c4ccccc4nc4c(C(=O)NNCCO)cccc34)cc2)n1`, the TGI in the assay on 786-0 renal, with KM12 colon, in the assay on SN12C renal, in the assay on OVCAR-8 ovarian, in the assay with EKVX NSCLC and in the assay on K-562 leukemia was above 100 µM in each case. Besides, the TGI with SNB-19 CNS, in the assay with MALME-3M melanoma, in the assay on NCI/ADR-RES ovarian, in the assay on SW-620 colon, in the assay with BT-549 breast and in the assay on NCI-H460 lung was above 100 µM each time. Besides, the TGI in the assay on ACHN renal, in the assay with TK-10 renal, in the assay with A549 NSCLC and in the assay with A498 renal was above 100 µM in each case.

As for `Cc1ccc2nc(CN3CCCC(O)C3)cc(=O)n2c1` (stereo not given), the TGI in the assay with SNB-75 CNS, in the assay on 786-0 renal, in the assay on KM12 colon, in the assay with SN12C renal, in the assay with OVCAR-8 ovarian and in the assay on EKVX NSCLC was above 100 µM throughout. The TGI with K-562 leukemia, in the assay with SNB-19 CNS, in the assay on MALME-3M melanoma, in the assay on NCI/ADR-RES ovarian, in the assay with SW-620 colon and in the assay with BT-549 breast was above 100 µM each time. Also, the TGI with NCI-H460 lung, with ACHN renal, with TK-10 renal, in the assay with A549 NSCLC and in the assay with NCI-H226 lung was above 100 µM each time.

Consider `CC1=NN(C(=O)CC(=O)Nc2ccc(C)cc2)C(=O)C1N=Nc1ccc(C(=O)O)cc1` (stereo not given), for which the TGI in the assay on SNB-75 CNS, in the assay with 786-0 renal, with KM12 colon, with SN12C renal, in the assay on OVCAR-8 ovarian and in the assay with EKVX NSCLC was above 100 µM throughout. Besides, the TGI in the assay with K-562 leukemia, in the assay on SNB-19 CNS, with MALME-3M melanoma, with NCI/ADR-RES ovarian, in the assay on SW-620 colon and in the assay on BT-549 breast was above 100 µM in each case. Further, the TGI in the assay on RXF 393 renal, with ACHN renal, with TK-10 renal, in the assay with A549 NSCLC and with A498 renal was above 100 µM throughout.

Consider `COc1ccc2nc3c([N+](=O)[O-])ccc4c3c(c2c1)N=CN4CCCN(C)C`, for which the TGI in the assay with SNB-75 CNS came out at 11.1 µM; in the assay with 786-0 renal, 14.3 µM; with KM12 colon, 13 µM; in the assay on SN12C renal, 11.5 µM; in the assay with OVCAR-8 ovarian, 25.7 µM; in the assay with EKVX NSCLC, 16.2 µM. In addition, the TGI in the assay on K-562 leukemia is 2.19 µM; in the assay on SNB-19 CNS it was 22.2 µM; in the assay on MALME-3M melanoma it was 28.2 µM; in the assay with NCI/ADR-RES ovarian it was 18 µM; in the assay with SW-620 colon, above 44.3 µM; in the assay with BT-549 breast, 23.5 µM. For the same compound, the TGI with NCI-H460 lung worked out at 16.3 µM; in the assay on ACHN renal, 15.3 µM; in the assay on TK-10 renal, 6.51 µM; in the assay with A549 NSCLC, 13.4 µM; in the assay with NCI-H226 lung, 24.9 µM; in the assay with A498 renal it was 21.4 µM.

With `CCN(CC)C1Oc2cc3c(cc2C(c2ccc(OC)cc2)C1C)OCO3` (stereo not given), the TGI in the assay on SNB-75 CNS amounted to 59.7 µM; in the assay on 786-0 renal, 48 µM; with KM12 colon, 53.2 µM; with SN12C renal, 63 µM; in the assay with OVCAR-8 ovarian it was 44.9 µM; in the assay on EKVX NSCLC it was 49.9 µM. For the same compound, the TGI in the assay with K-562 leukemia was 45.9 µM; in the assay on SNB-19 CNS it was 83.7 µM; in the assay on MALME-3M melanoma, 37.3 µM; with SW-620 colon it was above 100 µM; in the assay on BT-549 breast, 67 µM; in the assay with RXF 393 renal, 40.6 µM. In addition, the TGI in the assay with NCI-H460 lung was 37.2 µM; in the assay on ACHN renal, 59.6 µM; with TK-10 renal, 56.2 µM; in the assay with A549 NSCLC, 74 µM; in the assay with NCI-H226 lung, 54.7 µM; in the assay on A498 renal, 48.2 µM.

Consider `COC(=O)c1cc2c(o1)Sc1ccccc1NC2=O`, for which the TGI in the assay with SNB-75 CNS was 66.6 µM; in the assay on 786-0 renal it was above 100 µM; in the assay on KM12 colon, above 100 µM; in the assay with SN12C renal, above 100 µM; in the assay with OVCAR-8 ovarian, above 100 µM; in the assay on K-562 leukemia it was above 100 µM. Further, the TGI in the assay on SNB-19 CNS, in the assay with NCI/ADR-RES ovarian, in the assay on SW-620 colon, in the assay on BT-549 breast, in the assay on NCI-H460 lung and in the assay on ACHN renal was above 100 µM in each case. The TGI in the assay on TK-10 renal, with A549 NSCLC, in the assay with NCI-H226 lung and in the assay on A498 renal was above 100 µM throughout.
